Results from PubChem BioAssay (NCI).
“And” between values parts separate entries of the source, which are not always exact repeats. Identical values can stand only once.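 Protocol summary: plate cells (96-well), add compound at 5 concentrations, incubate 48 h, interpolate endpoints linearly. GI50: concentration for 50% inhibition of growth. TGI: concentration producing complete growth inhibition.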 Where a SMILES comes first, the peptide text is derived from it. [ ]: non-standard residue; d: D form. The star is where a group is joined. NMeF = CN[C@@H](Cc1ccccc1)C(=O)O; NMeV = CN[C@H](C(=O)O)C(C)C; Boc = CC(C)(C)OC(=O)*; OBn = c1ccc(CO*)cc1

Legend:
Assay in all cases: DTP human tumour cell line panel, 48 h
786-0 renal = tested on: 786-0 renal
A498 renal = tested on: A498 renal
A549 NSCLC = tested on: A549 NSCLC
ACHN renal = tested on: ACHN renal
BT-549 breast = tested on: BT-549 breast
CAKI-1 renal = tested on: CAKI-1 renal
CCRF-CEM leukemia = tested on: CCRF-CEM leukemia
COLO 205 colon = tested on: COLO 205 colon
DLD-1 colon = tested on: DLD-1 colon
DMS 114 small cell lung = tested on: DMS 114 small cell lung
DMS 273 small cell lung = tested on: DMS 273 small cell lung
DU-145 prostate = tested on: DU-145 prostate
EKVX NSCLC = tested on: EKVX NSCLC
HCC-2998 colon = tested on: HCC-2998 colon
HCT-116 colon = tested on: HCT-116 colon
HCT-15 colon = tested on: HCT-15 colon
HL-60(TB) leukemia = tested on: HL-60(TB) leukemia
HOP-18 NSCLC = tested on: HOP-18 NSCLC
HOP-62 NSCLC = tested on: HOP-62 NSCLC
HOP-92 NSCLC = tested on: HOP-92 NSCLC
HS 578T breast = tested on: HS 578T breast
HT29 colon = tested on: HT29 colon
IGROV1 ovarian = tested on: IGROV1 ovarian
K-562 leukemia = tested on: K-562 leukemia
KM12 colon = tested on: KM12 colon
KM20L2 colon = tested on: KM20L2 colon
LOX IMVI melanoma = tested on: LOX IMVI melanoma
LXFL 529 NSCLC = tested on: LXFL 529 NSCLC
M14 melanoma = tested on: M14 melanoma
M19-MEL melanoma = tested on: M19-MEL melanoma
MALME-3M melanoma = tested on: MALME-3M melanoma
MCF7 breast = tested on: MCF7 breast
MDA-MB-231 breast = tested on: MDA-MB-231 breast
MDA-MB-435 = tested on: MDA-MB-435
MOLT-4 leukemia = tested on: MOLT-4 leukemia
NCI-H226 lung = tested on: NCI-H226 lung
NCI-H23 lung = tested on: NCI-H23 lung
NCI-H460 lung = tested on: NCI-H460 lung
NCI-H522 lung = tested on: NCI-H522 lung
NCI/ADR-RES ovarian = tested on: NCI/ADR-RES ovarian
OVCAR-3 ovarian = tested on: OVCAR-3 ovarian
OVCAR-4 ovarian = tested on: OVCAR-4 ovarian
OVCAR-5 ovarian = tested on: OVCAR-5 ovarian
OVCAR-8 ovarian = tested on: OVCAR-8 ovarian
PC-3 prostate = tested on: PC-3 prostate
RPMI-8226 leukemia = tested on: RPMI-8226 leukemia
RXF 393 renal = tested on: RXF 393 renal
SF-268 CNS = tested on: SF-268 CNS
SF-295 CNS = tested on: SF-295 CNS
SF-539 CNS = tested on: SF-539 CNS
SK-MEL-2 melanoma = tested on: SK-MEL-2 melanoma
SK-MEL-28 melanoma = tested on: SK-MEL-28 melanoma
SK-MEL-5 melanoma = tested on: SK-MEL-5 melanoma
SK-OV-3 ovarian = tested on: SK-OV-3 ovarian
SN12C renal = tested on: SN12C renal
SNB-19 CNS = tested on: SNB-19 CNS
SNB-75 CNS = tested on: SNB-75 CNS
SNB-78 CNS = tested on: SNB-78 CNS
SR leukemia = tested on: SR leukemia
SW-620 colon = tested on: SW-620 colon
T-47D breast = tested on: T-47D breast
TK-10 renal = tested on: TK-10 renal
U251 CNS = tested on: U251 CNS
UACC-257 melanoma = tested on: UACC-257 melanoma
UACC-62 melanoma = tested on: UACC-62 melanoma
UO-31 renal = tested on: UO-31 renal
XF 498 CNS = tested on: XF 498 CNS

CC(C)[C@@H](C(=O)N1CCC[C@H]1C(=O)OCc1ccccc1)N(C)C(=O)[C@H](C(C)C)N(C)C(=O)[C@H](Cc1ccccc1)N(C)C(=O)[C@H](NC(=O)OC(C)(C)C)C(C)C (Boc-[dV][NMeF][NMeV][NMeV]P-OBn)
GI50 (786-0 renal): 39.5 µM
TGI (786-0 renal): > 100 µM
TGI (A498 renal): > 100 µM
GI50 (A549 NSCLC): > 100 µM
TGI (A549 NSCLC): > 100 µM
TGI (ACHN renal): > 100 µM
TGI (BT-549 breast): > 50 µM
GI50 (CAKI-1 renal): > 100 µM
TGI (CAKI-1 renal): > 100 µM
GI50 (CCRF-CEM leukemia): 36.9 µM
TGI (CCRF-CEM leukemia): > 100 µM
GI50 (COLO 205 colon): 36.1 µM
TGI (COLO 205 colon): > 100 µM
TGI (DLD-1 colon): > 100 µM
TGI (DMS 114 small cell lung): > 100 µM
TGI (DMS 273 small cell lung): > 100 µM
TGI (DU-145 prostate): > 50 µM
TGI (EKVX NSCLC): > 100 µM
GI50 (HCC-2998 colon): 68.9 µM
TGI (HCC-2998 colon): > 100 µM
GI50 (HCT-116 colon): 19.6 µM
TGI (HCT-116 colon): > 100 µM
TGI (HCT-15 colon): > 100 µM
GI50 (HL-60(TB) leukemia): 21.9 µM
TGI (HL-60(TB) leukemia): > 100 µM
TGI (HOP-18 NSCLC): > 100 µM
TGI (HOP-62 NSCLC): > 100 µM
GI50 (HOP-92 NSCLC): 20.9 µM
TGI (HOP-92 NSCLC): > 100 µM
TGI (HS 578T breast): > 50 µM
TGI (HT29 colon): > 100 µM
TGI (IGROV1 ovarian): > 100 µM
GI50 (K-562 leukemia): > 100 µM
TGI (K-562 leukemia): > 100 µM
GI50 (KM12 colon): > 100 µM
TGI (KM12 colon): > 100 µM
TGI (KM20L2 colon): > 100 µM
GI50 (LOX IMVI melanoma): 12.9 µM
TGI (LOX IMVI melanoma): > 50 µM and 26.6 µM
TGI (LXFL 529 NSCLC): > 100 µM
GI50 (M14 melanoma): 41.7 µM
TGI (M14 melanoma): > 100 µM
TGI (M19-MEL melanoma): > 100 µM
TGI (MALME-3M melanoma): > 100 µM
TGI (MCF7 breast): > 50 µM
TGI (MDA-MB-231 breast): > 50 µM
TGI (MDA-MB-435): > 50 µM
GI50 (MOLT-4 leukemia): 3.68 µM
TGI (MOLT-4 leukemia): > 100 µM
TGI (NCI-H226 lung): > 100 µM
TGI (NCI-H23 lung): > 50 µM
GI50 (NCI-H460 lung): 17.5 µM
TGI (NCI-H460 lung): > 100 µM
TGI (NCI-H522 lung): > 50 µM
TGI (NCI/ADR-RES ovarian): > 50 µM
GI50 (OVCAR-3 ovarian): > 100 µM
TGI (OVCAR-3 ovarian): > 100 µM
TGI (OVCAR-4 ovarian): > 100 µM
TGI (OVCAR-5 ovarian): > 100 µM
TGI (OVCAR-8 ovarian): > 100 µM
TGI (PC-3 prostate): > 50 µM
GI50 (RPMI-8226 leukemia): 4.6 µM
TGI (RPMI-8226 leukemia): > 100 µM
GI50 (RXF 393 renal): 22.4 µM
TGI (RXF 393 renal): > 50 µM and 65.3 µM
GI50 (SF-268 CNS): > 100 µM
TGI (SF-268 CNS): > 100 µM
GI50 (SF-295 CNS): > 100 µM
TGI (SF-295 CNS): > 100 µM
TGI (SF-539 CNS): > 100 µM
TGI (SK-MEL-2 melanoma): > 100 µM
TGI (SK-MEL-28 melanoma): > 100 µM
TGI (SK-MEL-5 melanoma): > 100 µM
TGI (SK-OV-3 ovarian): > 100 µM
TGI (SN12C renal): > 100 µM
TGI (SNB-19 CNS): > 100 µM
GI50 (SNB-75 CNS): > 100 µM
TGI (SNB-75 CNS): > 100 µM
TGI (SNB-78 CNS): > 100 µM
TGI (SR leukemia): > 100 µM
GI50 (SW-620 colon): 12.5 µM
TGI (SW-620 colon): > 50 µM and 26.7 µM
TGI (T-47D breast): > 50 µM
TGI (TK-10 renal): > 100 µM
TGI (U251 CNS): > 100 µM
GI50 (UACC-257 melanoma): 16.5 µM
TGI (UACC-257 melanoma): > 100 µM
TGI (UACC-62 melanoma): > 100 µM
TGI (UO-31 renal): > 100 µM
TGI (XF 498 CNS): > 100 µM
